ChEMBL document CHEMBL4041544, “Discovery of new selective glucocorticoid receptor agonist leads” (Bioorg Med Chem Lett, 2017)

Target: T1, Glucocorticoid receptor (Homo sapiens, UniProt P04150)
T1 sequence (P04150 whole entry): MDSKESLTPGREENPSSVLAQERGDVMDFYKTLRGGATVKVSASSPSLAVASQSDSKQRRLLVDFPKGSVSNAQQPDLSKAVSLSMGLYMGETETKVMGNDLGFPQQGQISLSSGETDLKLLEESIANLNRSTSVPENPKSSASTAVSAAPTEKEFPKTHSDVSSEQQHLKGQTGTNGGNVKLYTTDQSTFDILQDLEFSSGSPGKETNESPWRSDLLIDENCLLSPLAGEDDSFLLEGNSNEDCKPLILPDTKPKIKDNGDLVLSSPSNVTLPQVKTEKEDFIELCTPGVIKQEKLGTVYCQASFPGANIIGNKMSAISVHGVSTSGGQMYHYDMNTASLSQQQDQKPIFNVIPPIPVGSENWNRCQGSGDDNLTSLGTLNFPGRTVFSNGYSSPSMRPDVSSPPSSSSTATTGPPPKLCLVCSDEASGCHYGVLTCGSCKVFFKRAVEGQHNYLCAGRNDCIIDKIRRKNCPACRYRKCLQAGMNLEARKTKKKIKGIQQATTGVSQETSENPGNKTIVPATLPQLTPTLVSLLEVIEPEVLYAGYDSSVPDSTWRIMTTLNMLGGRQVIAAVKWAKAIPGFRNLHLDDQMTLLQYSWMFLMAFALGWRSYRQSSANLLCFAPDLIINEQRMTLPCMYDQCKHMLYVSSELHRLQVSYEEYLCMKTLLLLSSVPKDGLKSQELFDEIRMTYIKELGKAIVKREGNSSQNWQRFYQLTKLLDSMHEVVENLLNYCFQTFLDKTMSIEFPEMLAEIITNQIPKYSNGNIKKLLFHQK
Assay: Transrepression activity at glucocorticoid receptorin human HeLa cells assessed as inhibition of TPA-induced collagenase promoter activity by luciferase reporter gene assay
Assay type: cell-based
Settings: not given

IC50 | SMILES
20 nM | C=C(C)C[C@@](O)([C@@H](Nc1cccc2c(=O)[nH]ccc12)c1cc(Br)ccc1O)C(F)(F)F (racemic)
6.31 nM | CC1(C)C[C@](O)(C(F)(F)F)[C@@H](Nc2cccc3c(=O)[nH]ccc23)c2ccc(F)c(O)c21 (racemic)

Target: T1, Glucocorticoid receptor
Assay: Transactivation activity at glucocorticoid receptor in human HeLa cells assessed as induction of MMTV promoter activity by luciferase reporter gene assay
Assay type: cell-based
Settings: not given

pEC50 | SMILES
7.9 | Cc1ccc2c(NCC(O)(CC(C)(C)c3cc(F)ccc3O)C(F)(F)F)cccc2n1 (stereo not drawn)
6.8 | C=C(C)C[C@@](O)([C@@H](Nc1cccc2c(=O)[nH]ccc12)c1cc(Br)ccc1O)C(F)(F)F (racemic)
7.9 | CC1(C)C[C@](O)(C(F)(F)F)[C@@H](Nc2cccc3c(=O)[nH]ccc23)c2ccc(F)c(O)c21 (racemic)

Target: T1, Glucocorticoid receptor
Assay: Transrepression activity at glucocorticoid receptor in human THP1 cells assessed as receptor-mediated anti-inflammatory activity by measuring inhibition of LPS-induced IL-8 production
Assay type: cell-based
Settings: not given

IC50 | SMILES
20 nM | C=C(C)C[C@@](O)([C@@H](Nc1cccc2c(=O)[nH]ccc12)c1cc(Br)ccc1O)C(F)(F)F (racemic)
6.31 nM | CC1(C)C[C@](O)(C(F)(F)F)[C@@H](Nc2cccc3c(=O)[nH]ccc23)c2ccc(F)c(O)c21 (racemic)

Target: T1, Glucocorticoid receptor
Assay: Binding affinity to recombinant human glucocorticoid receptor expressed in baculovirus infected sf9 cells
Settings: not given

IC50 | SMILES
63.1 nM | C=C(C)C[C@@](O)([C@@H](Nc1cccc2c(=O)[nH]ccc12)c1cc(Br)ccc1O)C(F)(F)F (racemic)
20 nM | CC1(C)C[C@](O)(C(F)(F)F)[C@@H](Nc2cccc3c(=O)[nH]ccc23)c2ccc(F)c(O)c21 (racemic)

Target: T2, Progesterone receptor (Homo sapiens, UniProt P06401)
T2 sequence (P06401 whole entry): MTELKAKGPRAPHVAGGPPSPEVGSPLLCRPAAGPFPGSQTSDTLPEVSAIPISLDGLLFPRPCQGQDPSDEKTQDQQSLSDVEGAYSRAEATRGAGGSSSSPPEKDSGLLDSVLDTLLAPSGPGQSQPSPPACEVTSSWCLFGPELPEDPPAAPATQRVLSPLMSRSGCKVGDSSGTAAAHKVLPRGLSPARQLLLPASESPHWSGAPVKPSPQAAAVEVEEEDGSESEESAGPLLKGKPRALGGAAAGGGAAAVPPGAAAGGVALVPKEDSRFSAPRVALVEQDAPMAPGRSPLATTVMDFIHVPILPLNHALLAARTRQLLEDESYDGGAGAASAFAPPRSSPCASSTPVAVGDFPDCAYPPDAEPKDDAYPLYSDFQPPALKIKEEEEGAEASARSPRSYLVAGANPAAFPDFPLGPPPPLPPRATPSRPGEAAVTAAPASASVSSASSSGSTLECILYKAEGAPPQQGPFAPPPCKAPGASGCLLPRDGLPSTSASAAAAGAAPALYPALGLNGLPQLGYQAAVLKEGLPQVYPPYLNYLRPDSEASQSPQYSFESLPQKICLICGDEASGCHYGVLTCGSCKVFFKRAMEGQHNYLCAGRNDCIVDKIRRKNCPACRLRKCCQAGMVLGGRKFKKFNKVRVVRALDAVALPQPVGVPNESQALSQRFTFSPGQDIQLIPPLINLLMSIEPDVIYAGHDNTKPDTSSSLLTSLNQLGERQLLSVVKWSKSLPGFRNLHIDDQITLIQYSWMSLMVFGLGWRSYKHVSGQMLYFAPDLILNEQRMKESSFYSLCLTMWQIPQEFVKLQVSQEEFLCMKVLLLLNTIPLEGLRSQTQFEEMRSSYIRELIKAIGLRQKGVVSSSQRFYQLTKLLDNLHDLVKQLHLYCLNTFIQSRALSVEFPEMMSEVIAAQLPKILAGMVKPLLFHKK
Assay: Binding affinity to recombinant human progesterone receptor expressed in baculovirus infected sf9 cells
Settings: not given

IC50 | SMILES
794 nM | CCSC[C@@](O)([C@@H](Nc1cccc2nc(C)ccc12)c1ccc(OC)c(F)c1Cl)C(F)(F)F
> 1000 nM | CC[C@@H]1C[C@](O)(C(F)(F)F)[C@@H](Nc2cccc3[nH]c(=O)ccc23)c2cc(F)c(F)c(O)c21
631 nM | C=C(C)C[C@@](O)([C@@H](Nc1cccc2c(=O)[nH]ccc12)c1cc(Br)ccc1O)C(F)(F)F (racemic)
794 nM | CC1(C)C[C@](O)(C(F)(F)F)[C@@H](Nc2cccc3c(=O)[nH]ccc23)c2ccc(F)c(O)c21 (racemic)
> 1000 nM | C[C@@H]1C[C@H]2[C@@H]3CCC4=CC(=O)C=C[C@]4(C)[C@@]3(F)[C@@H](O)C[C@]2(C)[C@@]1(O)C(=O)CO [DEXAMETHASONE]

Target: T3, Mineralocorticoid receptor (Homo sapiens, UniProt P08235)
T3 sequence (P08235 whole entry): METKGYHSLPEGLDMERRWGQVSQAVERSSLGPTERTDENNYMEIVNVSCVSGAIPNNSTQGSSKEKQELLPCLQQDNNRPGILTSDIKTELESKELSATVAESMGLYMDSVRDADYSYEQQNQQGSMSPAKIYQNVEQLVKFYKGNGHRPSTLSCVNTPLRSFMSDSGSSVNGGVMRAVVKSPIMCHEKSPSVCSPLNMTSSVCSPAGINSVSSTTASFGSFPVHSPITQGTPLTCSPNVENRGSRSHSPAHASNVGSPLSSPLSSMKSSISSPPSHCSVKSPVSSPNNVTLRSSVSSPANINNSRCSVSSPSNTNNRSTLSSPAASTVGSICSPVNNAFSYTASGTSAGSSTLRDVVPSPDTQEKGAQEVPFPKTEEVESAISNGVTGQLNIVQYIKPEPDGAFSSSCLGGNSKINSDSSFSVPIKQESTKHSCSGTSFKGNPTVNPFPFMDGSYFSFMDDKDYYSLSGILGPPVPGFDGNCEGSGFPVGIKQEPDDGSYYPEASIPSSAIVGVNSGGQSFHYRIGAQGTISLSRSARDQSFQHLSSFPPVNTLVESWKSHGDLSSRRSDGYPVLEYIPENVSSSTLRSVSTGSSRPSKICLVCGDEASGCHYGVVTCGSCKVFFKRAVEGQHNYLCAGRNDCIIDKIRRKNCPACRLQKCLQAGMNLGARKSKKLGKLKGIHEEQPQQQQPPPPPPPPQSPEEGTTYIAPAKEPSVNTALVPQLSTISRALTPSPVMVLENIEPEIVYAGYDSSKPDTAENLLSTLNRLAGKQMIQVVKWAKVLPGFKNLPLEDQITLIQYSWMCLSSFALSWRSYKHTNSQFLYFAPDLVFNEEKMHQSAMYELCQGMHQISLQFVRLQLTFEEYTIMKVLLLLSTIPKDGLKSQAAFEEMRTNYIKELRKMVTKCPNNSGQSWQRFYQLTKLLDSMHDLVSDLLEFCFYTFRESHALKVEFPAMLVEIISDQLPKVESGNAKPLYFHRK
Assay: Binding affinity to recombinant human mineralocorticoid receptor expressed in baculovirus infected sf9 cells
Settings: not given

IC50 | SMILES
> 1000 nM | CCSC[C@@](O)([C@@H](Nc1cccc2nc(C)ccc12)c1ccc(OC)c(F)c1Cl)C(F)(F)F
> 1000 nM | CC[C@@H]1C[C@](O)(C(F)(F)F)[C@@H](Nc2cccc3[nH]c(=O)ccc23)c2cc(F)c(F)c(O)c21
> 1000 nM | C=C(C)C[C@@](O)([C@@H](Nc1cccc2c(=O)[nH]ccc12)c1cc(Br)ccc1O)C(F)(F)F (racemic)
> 1000 nM | CC1(C)C[C@](O)(C(F)(F)F)[C@@H](Nc2cccc3c(=O)[nH]ccc23)c2ccc(F)c(O)c21 (racemic)

Target: T4, Androgen receptor (Homo sapiens, UniProt P10275)
T4 sequence (P10275 whole entry): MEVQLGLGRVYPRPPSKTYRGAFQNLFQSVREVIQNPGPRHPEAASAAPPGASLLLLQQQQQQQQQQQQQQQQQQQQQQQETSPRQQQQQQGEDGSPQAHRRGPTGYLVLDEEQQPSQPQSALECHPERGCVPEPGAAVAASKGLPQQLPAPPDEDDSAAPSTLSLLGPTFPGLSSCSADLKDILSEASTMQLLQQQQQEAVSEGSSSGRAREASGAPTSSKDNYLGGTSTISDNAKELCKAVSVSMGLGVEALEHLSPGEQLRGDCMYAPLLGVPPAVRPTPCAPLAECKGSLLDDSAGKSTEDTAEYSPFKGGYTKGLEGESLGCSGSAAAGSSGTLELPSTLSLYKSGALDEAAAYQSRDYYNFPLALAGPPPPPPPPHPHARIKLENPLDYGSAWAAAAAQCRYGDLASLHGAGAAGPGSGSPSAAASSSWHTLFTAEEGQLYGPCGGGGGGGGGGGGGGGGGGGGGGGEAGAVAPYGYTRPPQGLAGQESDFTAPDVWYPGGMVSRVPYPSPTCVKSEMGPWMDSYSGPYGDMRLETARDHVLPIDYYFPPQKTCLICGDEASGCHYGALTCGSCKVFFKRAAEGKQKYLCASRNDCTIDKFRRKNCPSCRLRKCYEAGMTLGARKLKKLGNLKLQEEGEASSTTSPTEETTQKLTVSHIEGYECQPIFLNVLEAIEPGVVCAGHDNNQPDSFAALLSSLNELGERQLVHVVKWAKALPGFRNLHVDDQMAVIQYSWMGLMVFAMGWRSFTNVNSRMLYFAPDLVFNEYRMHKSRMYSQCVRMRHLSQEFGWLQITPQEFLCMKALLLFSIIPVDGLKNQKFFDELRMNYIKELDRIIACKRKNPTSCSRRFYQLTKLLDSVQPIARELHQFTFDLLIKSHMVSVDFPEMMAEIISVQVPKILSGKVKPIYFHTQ
Assay: Binding affinity to recombinant human androgen receptor expressed in baculovirus infected sf9 cells
Settings: not given

IC50 | SMILES
> 1000 nM | CCSC[C@@](O)([C@@H](Nc1cccc2nc(C)ccc12)c1ccc(OC)c(F)c1Cl)C(F)(F)F
> 1000 nM | CC[C@@H]1C[C@](O)(C(F)(F)F)[C@@H](Nc2cccc3[nH]c(=O)ccc23)c2cc(F)c(F)c(O)c21
> 1000 nM | C=C(C)C[C@@](O)([C@@H](Nc1cccc2c(=O)[nH]ccc12)c1cc(Br)ccc1O)C(F)(F)F (racemic)
316 nM | CC1(C)C[C@](O)(C(F)(F)F)[C@@H](Nc2cccc3c(=O)[nH]ccc23)c2ccc(F)c(O)c21 (racemic)

Tested on: not listed separately
Assay: Stability in human liver microsomes assessed as drug recovery after 30 mins
Assay type: ADME, microsome
Settings: read-out: Drug recovery

remaining at 0.5 h | SMILES
31% | Cc1ccc2c(NCC(O)(CC(C)(C)c3cc(F)ccc3O)C(F)(F)F)cccc2n1 (stereo not drawn)
48% | CC1(C)C[C@](O)(C(F)(F)F)[C@@H](Nc2cccc3c(=O)[nH]ccc23)c2ccc(F)c(O)c21 (racemic)

Tested on: Rattus norvegicus
Assay: Anti-inflammatory activity in po dosed Wistar rat assessed as inhibition of croton oil-induced ear edema
Assay type: functional
Settings: not given

SMILES | ED50
C[C@]12C=CC(=O)C=C1CC[C@@H]1[C@@H]2[C@@H](O)C[C@@]2(C)[C@H]1CC[C@]2(O)C(=O)CO [PREDNISOLONE] | 15.7 mg/kg

Tested on: Rattus norvegicus
Assay: Anti-inflammatory activity in po dosed Brown Norway rat assessed as inhibition of TMA-induced ear edema
Assay type: functional
Settings: not given

SMILES | ED50
C[C@]12C=CC(=O)C=C1CC[C@@H]1[C@@H]2[C@@H](O)C[C@@]2(C)[C@H]1CC[C@]2(O)C(=O)CO [PREDNISOLONE] | 6.7 mg/kg

Tested on: Rattus norvegicus
Assay: Anti-inflammatory activity in Wistar rat assessed as inhibition of croton oil-induced ear edema at 30 mg/kg, po relative to control
Assay type: functional
Settings: not given

SMILES | Imax
C[C@]12C=CC(=O)C=C1CC[C@@H]1[C@@H]2[C@@H](O)C[C@@]2(C)[C@H]1CC[C@]2(O)C(=O)CO [PREDNISOLONE] | 83%

Tested on: Rattus norvegicus
Assay: Anti-inflammatory activity in Brown Norway rat assessed as inhibition of TMA-induced ear edema at 30 mg/kg, po relative to control
Assay type: functional
Settings: not given

SMILES | Imax
C[C@]12C=CC(=O)C=C1CC[C@@H]1[C@@H]2[C@@H](O)C[C@@]2(C)[C@H]1CC[C@]2(O)C(=O)CO [PREDNISOLONE] | 107%
